Assay results: paper PMC9412414, “A Study on Repositioning Nalidixic Acid via Lanthanide Complexation: Synthesis, Characterization, Cytotoxicity and DNA/Protein Binding Studies” (Pharmaceuticals, 2022)

Test system: LoVo (human colorectal adenocarcinoma) cell line
Assay: MTS cytotoxicity assay, LoVo cell line
Assay type: cell-based
Details: 48 h of incubation
Protocol: (§1) LoVo, MDA-MB-231 and HUVEC human cell lines were purchased from American Type Culture Collection (ATCC). Cells were routinely maintained in culture either in culture flasks or seeded in plates, using Dulbecco’s modified Eagle medium/nutrient mixture F-12 (DMEM:F12) medium supplemented with […], 10% fetal calf serum (Sigma Aldrich, St. Louis, MO, USA), 100 units/mL penicillin, 100 μg/mL streptomycin and incubated at 37 °C in 5% CO2 humidified atmosphere.
(§2) Cytotoxicity studies were performed in 96-well microtiter plates with flat bottoms (Falcon, Teterboro, NJ, USA) using the CellTiter 96 Aqueous One Solution Cell Proliferation Assay (Promega, Madison, WI, USA), an MTS-based colorimetric assay. Metabolically active cells have the ability to reduce MTS [3-(4,5-dimethylthiazol-2-yl)-5-(3-carboxymethoxyphenyl)-2-(4-sulfophenyl)-2H-tetrazolium, inner salt], a yellow tetrazolium salt, to a colored formazan that is soluble in the culture medium. Briefly, 15 × 10^3 cells per well were cultured in 100 µL culture medium. After 24 h, adherent cells were treated with different concentrations of the studied compounds, as well as adriamycin (Adr) and cisplatin (Cis-Pt), used as positive controls for 24 h and 48 h, respectively. Each well was then filled with 20 µL of reagent containing MTS and PES (phenazine ethosulfate, a cationic dye with excellent chemical stability that binds to MTS and produces a stable solution). The resulting formazan was determined using a Tecan GENios Spectrophotometer (Tecan US, Durham, NC, USA) by measuring the absorbance at λ = 492 nm after incubation for 4 h at 37 °C with moderate agitation every 15 min. The cytotoxicity tests were performed in triplicate, with results reported as mean values with standard deviations (SD). The cytotoxicity of DMSO was also investigated under the same conditions, and no harmful effect was found at doses less than 1%.
(§3) Data were expressed as cell viability by comparing with untreated cells considered 100% viable, using the following formula:(1) Cell viability (%)=absorbance of treated cells−absorbance of culture medium/absorbance of untreated cells−absorbance of culture medium

Substance	IC50
Eu(C12H11N2O3)3(H2O)2·2.5H2O [Eu(nal)3]	26.9 ± 5.72 µM
Gd(C12H11N2O3)3(H2O)2·1.5H2O [Gd(nal)3]	28.4 ± 7.95 µM

Test system: HUVEC (human umbilical vein endothelial cells)
Assay: MTS cytotoxicity assay, HUVEC normal cell line
Assay type: cell-based
Details: 24 h of incubation
Protocol: as §1, §2, §3

Substance	IC50
Eu(C12H11N2O3)3(H2O)2·2.5H2O [Eu(nal)3]	> 200 µM
Gd(C12H11N2O3)3(H2O)2·1.5H2O [Gd(nal)3]	58.4 ± 29.3 µM

Test system: EB–DNA system (CT-DNA)
Assay: Competitive binding assay with ethidium bromide (EB) through fluorescence spectroscopy
Set-up: species or system calf
Details: EB 2 µM, CT-DNA 10 µM, compound 0–40 µM
Protocol: The fluorescence spectra were recorded using 1.6 mL samples containing 10 µM CT-DNA, 2 µM EB, and increasing amounts (0–40 µM with an increment of 5 µM) of tested compounds; the samples were prepared by keeping the components in contact for 10 min at room temperature, under continuous stirring and in the dark. The excitation wavelength was 500 nm, and the spectra were recorded between the wavelengths of 520 and 800 nm. A Jasco FP 6500 fluorometer and quartz cells with a 1 cm route length were employed. The classical Stern–Volmer equation (Equation (3)) was used to interpret the obtained data:(3) F0/F=1+KSV·[Q] F0 and F are the fluorescence intensities of the EB–DNA samples in the absence and presence of the tested compounds, respectively; KSV is the Stern–Volmer constant, which was computed as the slope from the plot of F0/F vs. [Q], where [Q] is the chemical concentration.
The binding ratio was plotted against the logarithm of the concentration in comparison with a control sample exposed solely to DMSO. (4) y=A1+(A2−A1)×x^n/K50^n+x^n
For fitting data points, the modified Hill function with offset (Origin®) was used: where y represents the binding ratio (F/F0), x represents the concentration, A1 represents the minimum of y values, A2 represents the maximum of y values, K50 represents the concentration corresponding to 50% binding or the half maximum binding constant, and n represents the Hill coefficient.

Substance	EB Displacement Assay K50 (half maximum binding constant)	KSV, Stern–Volmer quenching constant (EB–DNA)
Eu(C12H11N2O3)3(H2O)2·2.5H2O [Eu(nal)3]	30.96 ± 10.85 µM	9.62 ± 0.10 M^−1 (×10^3)
Gd(C12H11N2O3)3(H2O)2·1.5H2O [Gd(nal)3]	31.88 ± 7.73 µM	9.86 ± 0.19 M^−1 (×10^3)

Target: T1, apotransferrin (apo-Tf) (Homo sapiens, UniProt P02787)
T1 construct: purchased Sigma-Aldrich Chemical Co. (Schnelldorf, Germany)
Assay: Apo-Tf fluorescence quenching binding study
Details: apo-Tf 1 µM, 298 K
Protocol: (§4) Using a Jasco FP 6500 spectrofluorometer (Jasco, Tokyo, Japan) and quartz cells with a 1 cm path length, the fluorescence spectra of HSA and apo-Tf were recorded in the presence and absence of the examined substances. The 2.5 mL samples containing 2.5 µM HSA or 1 µM apo-Tf were titrated by adding 5 µL of the tested substance at a time, a volume that corresponded to a 1 µM increase in concentration. The concentration range used for these experiments varied from 0 to 8 µM. The relevant spectra were collected in the emission domains of 300–500 nm (HSA) and 305–500 nm (apo-Tf) after 3 min of continuous stirring at room temperature, using excitation wavelengths of 280 nm (HSA) and 295 nm (apo-Tf).
(§5) Experiments were conducted in a pH = 7.4 Tris-HCl buffer (5 mM Tris-HCl/50 mM NaCl for HSA and 5 mM Tris-HCl/50 mM NaCl/25 mM NaHCO3 for apo-Tf).
(§6) The following modified Stern–Volmer equation has been used to calculate the Stern–Volmer constant, which will be denoted as KSV* in order to differentiate it from the Stern–Volmer constant calculated for the DNA binding experiments:(5) F0/F0−F=1/faKsv*[Q]+1/fa where F0 and F are the fluorescence intensities in the absence and presence of the tested compounds, fa is the fraction of fluorophore accessible to the quencher (the tested compounds), [Q] is the quencher concentration, and KSV* (M^−1) is the Stern–Volmer constant; the plot of F0/(F0 − F) against 1/[Q] yields KSV as the slope and fa as the y intercept.
(§7) Subsequently, the bimolecular quenching rate constant was obtained by using Equation (6):(6) Ksv^*=Kqτ0
(§8) Kq (M^−1·s^−1) is the bimolecular quenching rate constant and τ0 is the fluorophore’s lifespan in the absence of the investigated chemicals (10^−8 s). The value of Kq can be used to assess whether the quenching phenomena have an underlying static or dynamic mechanism.
(§9) Using the following equation, the affinity constant (Ka) and the number of binding sites (n) have been calculated: (7) lgF0−F/F=lgKa+nlg[Q]
(§10) The binding affinity, Kd, can be calculated using the quadratic function below:(8) F0−F/F0−Fb=[P]t+[Q]+Kd−([P]t+[Q]+Kd)^2−4[P]t[Q]/2[P]t where F and F0 are the fluorescence intensities of the protein in the presence and absence of the quencher, respectively, Fb is the fluorescence of a fully bound protein–quencher, [P]t is the total concentration of the protein, and [Q] is the concentration of the added quencher. Each binding isotherm was plotted against the total quencher concentration in solution as a function of bound to free protein (F/F0).
(§11) The isotherms were then fitted using the nonlinear regression function below:(9) F/F0= F1+(F2−F1)Kdn/Kdn+[Q]^n where n represents the Hill coefficient, F1 and F2 are the horizontal and vertical asymptotes, respectively. The Kd in Equation (9) is derived from the quadratic binding function (Equation (8)).
(§12) Data were collected in triplicate, averaged, and expressed as mean value ± standard deviation (SD). All graph fitting models were defined and built using OriginPro® 2018.

T1 sequence (P02787 20-698): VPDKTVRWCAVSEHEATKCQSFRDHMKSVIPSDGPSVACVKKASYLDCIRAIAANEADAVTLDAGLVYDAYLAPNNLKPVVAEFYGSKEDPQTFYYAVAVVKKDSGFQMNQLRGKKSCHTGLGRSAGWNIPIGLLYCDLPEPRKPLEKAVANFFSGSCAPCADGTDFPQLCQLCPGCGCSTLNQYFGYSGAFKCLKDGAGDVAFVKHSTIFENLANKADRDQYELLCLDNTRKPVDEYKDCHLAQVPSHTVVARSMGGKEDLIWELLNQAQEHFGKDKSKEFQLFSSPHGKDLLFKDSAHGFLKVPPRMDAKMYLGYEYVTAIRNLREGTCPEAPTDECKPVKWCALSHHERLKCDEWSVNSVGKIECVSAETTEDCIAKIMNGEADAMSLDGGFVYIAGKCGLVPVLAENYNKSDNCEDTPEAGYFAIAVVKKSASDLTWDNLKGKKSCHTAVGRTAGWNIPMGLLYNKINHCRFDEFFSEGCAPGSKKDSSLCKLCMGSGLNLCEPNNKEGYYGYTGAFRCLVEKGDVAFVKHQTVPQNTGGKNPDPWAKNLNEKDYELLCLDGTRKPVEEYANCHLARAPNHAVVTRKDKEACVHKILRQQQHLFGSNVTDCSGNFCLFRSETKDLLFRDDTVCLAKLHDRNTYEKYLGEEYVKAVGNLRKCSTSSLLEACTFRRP

Substance	Ka (association binding constant), Apo-Tf	n1 (Number of Binding Sites), Apo-Tf	n2 (Hill Coefficient), Apo-Tf
Eu(C12H11N2O3)3(H2O)2·2.5H2O [Eu(nal)3]	(2.25 ± 1.01) × 10^4 M^−1	0.84 ± 0.03	1.58 ± 0.23
Gd(C12H11N2O3)3(H2O)2·1.5H2O [Gd(nal)3]	(2.63 ± 0.39) × 10^4 M^−1	0.87 ± 0.01	1.22 ± 0.12

Same assay, conditions: apo-Tf 1 µM, 298 K; read-out: Kd (dissociation constant), Apo-Tf

Substance	Kd
Eu(C12H11N2O3)3(H2O)2·2.5H2O [Eu(nal)3]	3.85 ± 0.29 µM
Gd(C12H11N2O3)3(H2O)2·1.5H2O [Gd(nal)3]	5.86 ± 0.72 µM

Same assay, conditions: apo-Tf 1 µM, compound 0–8 µM, 298 K

Substance	fa (fraction of fluorophore accessible to the quencher), Apo-Tf
Eu(C12H11N2O3)3(H2O)2·2.5H2O [Eu(nal)3]	0.80 ± 0.02
Gd(C12H11N2O3)3(H2O)2·1.5H2O [Gd(nal)3]	0.82 ± 0.02

Same assay, conditions: apo-Tf 1 µM, compound 0–8 µM, Tris-HCl pH 7.4, 298 K

Substance	Ksv* (Stern–Volmer quenching constant), Apo-Tf
Eu(C12H11N2O3)3(H2O)2·2.5H2O [Eu(nal)3]	(2.21 ± 0.13) × 10^5 M^−1
Gd(C12H11N2O3)3(H2O)2·1.5H2O [Gd(nal)3]	(1.78 ± 0.07) × 10^5 M^−1

Same assay, conditions: apo-Tf 1 µM, compound up to 8 µM

Substance	quenching effect on apo-Tf fluorescence peak
Eu(C12H11N2O3)3(H2O)2·2.5H2O [Eu(nal)3]	48%

Same assay, conditions: from Ksv* with τ0 = 10^−8 s, 298 K

Substance	Kq (bimolecular quenching constant), Apo-Tf
Eu(C12H11N2O3)3(H2O)2·2.5H2O [Eu(nal)3]	2.21e+13 M⁻¹ s⁻¹
Gd(C12H11N2O3)3(H2O)2·1.5H2O [Gd(nal)3]	1.78e+13 M⁻¹ s⁻¹

Target: T2, human serum albumin (HSA) (Homo sapiens, UniProt P02768)
T2 construct: purchased Sigma-Aldrich Chemical Co. (Schnelldorf, Germany)
Assay: HSA fluorescence quenching binding study
Details: HSA 2.5 µM, 298 K
Protocol: as §4, §5, §6, §7, §8, §9, §10, §11, §12

T2 sequence (P02768 25-609): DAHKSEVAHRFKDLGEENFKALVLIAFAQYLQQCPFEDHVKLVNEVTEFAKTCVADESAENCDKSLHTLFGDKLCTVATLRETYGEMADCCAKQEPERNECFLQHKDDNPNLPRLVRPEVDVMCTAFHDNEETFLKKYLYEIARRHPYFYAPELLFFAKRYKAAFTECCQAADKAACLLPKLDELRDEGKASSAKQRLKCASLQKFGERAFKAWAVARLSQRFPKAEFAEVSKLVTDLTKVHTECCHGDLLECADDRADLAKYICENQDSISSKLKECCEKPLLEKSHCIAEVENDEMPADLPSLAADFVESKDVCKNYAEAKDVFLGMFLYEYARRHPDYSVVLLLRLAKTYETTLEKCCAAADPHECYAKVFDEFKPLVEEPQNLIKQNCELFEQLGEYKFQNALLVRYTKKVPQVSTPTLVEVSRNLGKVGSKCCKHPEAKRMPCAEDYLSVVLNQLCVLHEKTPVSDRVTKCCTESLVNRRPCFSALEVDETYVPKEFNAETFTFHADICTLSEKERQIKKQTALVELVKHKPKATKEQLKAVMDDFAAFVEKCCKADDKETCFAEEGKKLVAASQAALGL

Substance	Ka (association binding constant), HSA	n1 (Number of Binding Sites), HSA	n2 (Hill Coefficient), HSA
Eu(C12H11N2O3)3(H2O)2·2.5H2O [Eu(nal)3]	(21.59 ± 2.04) × 10^5 M^−1	1.13 ± 0.00	1.17 ± 0.27
Gd(C12H11N2O3)3(H2O)2·1.5H2O [Gd(nal)3]	(19.61 ± 1.83) × 10^5 M^−1	1.14 ± 0.01	1.35 ± 0.12

Same assay, conditions: HSA 2.5 µM, 298 K; read-out: Kd (dissociation constant), HSA

Substance	Kd
Eu(C12H11N2O3)3(H2O)2·2.5H2O [Eu(nal)3]	2.67 ± 0.21 µM
Gd(C12H11N2O3)3(H2O)2·1.5H2O [Gd(nal)3]	3.27 ± 0.11 µM

Same assay, conditions: HSA 2.5 µM, compound 0–8 µM, 298 K

Substance	fa (fraction of fluorophore accessible to the quencher), HSA
Eu(C12H11N2O3)3(H2O)2·2.5H2O [Eu(nal)3]	1.13 ± 0.01
Gd(C12H11N2O3)3(H2O)2·1.5H2O [Gd(nal)3]	1.10 ± 0.00

Same assay, conditions: HSA 2.5 µM, compound 0–8 µM, Tris-HCl pH 7.4, 298 K

Substance	Ksv* (Stern–Volmer quenching constant), HSA
Eu(C12H11N2O3)3(H2O)2·2.5H2O [Eu(nal)3]	(2.89 ± 0.11) × 10^5 M^−1
Gd(C12H11N2O3)3(H2O)2·1.5H2O [Gd(nal)3]	(2.69 ± 0.05) × 10^5 M^−1

Same assay, conditions: from Ksv* with τ0 = 10^−8 s, 298 K

Substance	Kq (bimolecular quenching constant), HSA
Eu(C12H11N2O3)3(H2O)2·2.5H2O [Eu(nal)3]	2.89e+13 M⁻¹ s⁻¹
Gd(C12H11N2O3)3(H2O)2·1.5H2O [Gd(nal)3]	2.69e+13 M⁻¹ s⁻¹
